Laboratory results taken from patent US11420977B2, “Late SV40 (LSF) inhibitors” (Trustees of Boston University, priority 2018, dated 2022).

Columns and labels:
Assay type in all cases: cell-based
HT-29 cells = experiment: MTS cell proliferation assay, HT-29; conditions: Homo sapiens, 72-hour incubation
Protocol: (§1) Cell lines and culture conditions: Human colon cancer cells Caco-2, HT29 and HCT15, human pancreatic cancer cells BxPC3, CFPAC-1, and CAPAN-2, liver cancer cells SNU423 and kidney cells HEK293, were obtained from American Type Culture Collection (Rockville, USA). HeLa, DLD1, U937, THP-1, and NIH3T3 cells were obtained from ATCC. Huh7 cells were obtained from (Japanese Cancer Resources Bank). HeLa cells, Huh7, DLD1 and NIH-3T3 cells were cultured in DMEM (Dulbecco's modification of Eagle's Medium; Corning) supplemented with 10% Fetal Bovine Serum (FBS; Invitrogen) and 10% Fetal Calf Serum (FCS; Atlanta Biologicals) respectively. […]
(§2) MTS cell proliferation assay: Cells were detached from the plates using trypsin (0.25% for 3 mins, ATCC) and counted using a hemocytometer and were plated at 3000-1500 cells per well, in a 96-well format. […] After a 72-hour (or 120 hrs for BxPC3, CAPAN-2, SNU423) incubation with compound or vehicle, cell growth was assessed via the Promega CellTiter 96® AQueous One Solution Cell Proliferation Assay, a colorimetric method to determine the number of viable cells. 20 μL of the CellTiter 96® AQueous One Solution Reagent was added directly into cultured wells and incubated for approximately one hour, after which the absorbance at 490 nm was read with a 96-well plate reader (Opys MR Microplate Reader). […]

THP-1 cells = experiment: MTS cell proliferation assay, THP-1; conditions: Homo sapiens, 72-hour incubation
Protocol: as §1, §2

HEK-293 cells = experiment: MTS cell proliferation assay, HEK-293; conditions: Homo sapiens, HEK293, 72-hour incubation
Protocol: as §1, §2

CFPAC-1 cells = experiment: MTS cell proliferation assay, CFPAC-1; conditions: Homo sapiens, 72-hour incubation
Protocol: as §1, §2

RPE-hTERT Flp-In cells = experiment: FQI34/FQI1 comparison, mitotic defects in RPE-hTERT Flp-In cells
Protocol: RPE-hTERT Flp-In cells were incubated in serum-free DMEM:F12 media for 24 hours to synchronize the cells in G0/G1. Cells were stimulated to reenter the cell cycle with DMEM:F12 media containing 10% Fetal Bovine Serum. After 24 hours, the cells were treated with DMSO (vehicle), FQI1 (2.5 μM or 5 μM), or FQI34 (250 nM or 500 nM) for one hour. The cells were washed twice with 1×Phosphate-buffered Saline and fixed with PHEM (3.7% formaldehyde in 100 mM PIPES at pH 6.8, 10 mM EGTA, 1 mM magnesium chloride, and 0.2% Triton X-100) for 10 minutes at room temperature. The fixed cells were stained for α-tubulin using a mouse anti-α-tubulin antibody (Fisher #62204). Secondary antibodies were: DMSO/FQI1 samples—goat anti-mouse IgG conjugated to Alexa 546 (Thermo Fisher #A11003); FQI34 samples—goat anti-mouse IgG conjugated to Texas Red (Fisher #T-862). DNA was stained with Hoechst 33342. Cells were imaged using a Nikon NiE using the 40× objective and images were captured using a DS-Qi1 Mc 12 bit camera. Scale bars and merged images were generated using Fiji software.

CAPAN-2 cells = experiment: MTS cell proliferation assay, CAPAN-2; conditions: Homo sapiens, 120 hrs incubation
Protocol: as §1, §2

HuH7 cells = experiment: MTS cell proliferation assay, HuH7; conditions: Homo sapiens, Huh-7, 72-hour incubation
Protocol: (§3) Cell lines and culture conditions: Human colon cancer cells Caco-2, HT29 and HCT15, human pancreatic cancer cells BxPC3, CFPAC-1, and CAPAN-2, liver cancer cells SNU423 and kidney cells HEK293, were obtained from American Type Culture Collection (Rockville, USA). HeLa, DLD1, U937, THP-1, and NIH3T3 cells were obtained from ATCC. Huh7 cells were obtained from (Japanese Cancer Resources Bank). HeLa cells, Huh7, DLD1 and NIH-3T3 cells were cultured in DMEM (Dulbecco's modification of Eagle's Medium; Corning) supplemented with 10% Fetal Bovine Serum (FBS; Invitrogen) and 10% Fetal Calf Serum (FCS; Atlanta Biologicals) respectively. U937, BxPC3, HCT15, SNU423 and THP-1 cells were grown in RPMI-1640 (Roswell Park Memorial Institute; Corning) supplemented with 10% Fetal Bovine Serum (FBS; Invitrogen). CFPAC-1 cells were cultured in Iscove's Modified Dulbecco's Medium (ATCC) supplemented with 10% FBS. CAPAN-2 and HT29 cells were cultured in McCoy's 5a medium supplemented with 10% FBS. Caco2 and HEK293 cells were grown in Eagle's Minimum Essential Medium (ATCC) with final 20% FBS concentration. All cells were maintained at 37° C. in 5% CO2 at constant 70% humidity.
(§4) MTS cell proliferation assay: Cells were detached from the plates using trypsin (0.25% for 3 mins, ATCC) and counted using a hemocytometer and were plated at 3000-1500 cells per well, in a 96-well format. The cells were seeded in the inner wells of 96 well plates, and media was added to the outer wells (blank). For NIH-3T3, 1500 cells were seeded in the inner wells of 96-well plates, and after 20 hours cells were treated with compound or DMSO (vehicle control) at appropriate concentrations (DMSO at final concentration of 1%). For other adherent cells 3000 HeLa, BxPC3, CFPAC-1, CAPAN-2, HEK293, HCT15, HT29, CaCo2, DLD1, Huh7 or SNU423 cells were seeded in in each well approximately 20 hrs prior to the treatment. For U937 and THP-1 suspension cells, 2500 cells were added to the wells of a 96-well plate on the day of treatment. After a 72-hour (or 120 hrs for BxPC3, CAPAN-2, SNU423) incubation with compound or vehicle, cell growth was assessed via the Promega CellTiter 96® AQueous One Solution Cell Proliferation Assay, a colorimetric method to determine the number of viable cells. 20 μL of the CellTiter 96® AQueous One Solution Reagent was added directly into cultured wells and incubated for approximately one hour, after which the absorbance at 490 nm was read with a 96-well plate reader (Opys MR Microplate Reader). GI50 values were determined from plots of the percentage of compound-treated cell growth to vehicle cell growth vs. compound concentration (GraphPad Prism; non-linear regression, log inhibitor verse normalized response with variable slope).

U937 cells = experiment: MTS cell proliferation assay, U937; conditions: Homo sapiens, U-937, 72-hour incubation
Protocol: as §1, §2

HCT-15 cells = experiment: MTS cell proliferation assay, HCT-15; conditions: Homo sapiens, 72-hour incubation
Protocol: as §1, §2

CaCo-2 cells = experiment: MTS cell proliferation assay, CaCo-2; conditions: Homo sapiens, 72-hour incubation
Protocol: as §1, §2

BxPC-3 cells = experiment: MTS cell proliferation assay, BxPC-3; conditions: Homo sapiens, 120 hrs incubation
Protocol: as §1, §2

SNU-423 cells = experiment: MTS cell proliferation assay, SNU-423; conditions: Homo sapiens, 120 hrs incubation
Protocol: as §3, §4

HeLa cells = experiment: MTS cell proliferation assay, HeLa; conditions: Homo sapiens, 72-hour incubation
Protocol: as §3, with “All cells were maintained at 37° C. in 5% CO2 at constant 70% humidity.” left out
(§5) MTS cell proliferation assay: Cells were detached from the plates using trypsin (0.25% for 3 mins, ATCC) and counted using a hemocytometer and were plated at 3000-1500 cells per well, in a 96-well format. […] After a 72-hour (or 120 hrs for BxPC3, CAPAN-2, SNU423) incubation with compound or vehicle, cell growth was assessed via the Promega CellTiter 96® AQueous One Solution Cell Proliferation Assay, a colorimetric method to determine the number of viable cells. 20 μL of the CellTiter 96® AQueous One Solution Reagent was added directly into cultured wells and incubated for approximately one hour, after which the absorbance at 490 nm was read with a 96-well plate reader (Opys MR Microplate Reader). GI50 values were determined from plots of the percentage of compound-treated cell growth to vehicle cell growth vs. compound concentration (GraphPad Prism; non-linear regression, log inhibitor verse normalized response with variable slope).

NIH 3T3 cells = experiment: MTS cell proliferation assay, NIH 3T3; conditions: Mus musculus, NIH3T3, 72-hour incubation
Protocol: as §3, with “All cells were maintained at 37° C. in 5% CO2 at constant 70% humidity.” left out
as §5

## CCOc1cc(N(C)C)ccc1C1CC(=O)Nc2cc3c(cc21)OCO3 (stereo not drawn) [FQI-34]
HT-29 cells
  GI50: 316 nM
THP-1 cells
  GI50: 4800 nM
HEK-293 cells
  GI50: 219 nM
CFPAC-1 cells
  GI50: 676 nM
RPE-hTERT Flp-In cells; FQI34 250 nM or 500 nM vs FQI1 2.5 μM or 5 μM, one hour
  potency for causing mitotic defects relative to FQI1: at least 10 fold
RPE-hTERT Flp-In cells; one hour treatment, FIG. 33
  chromosome and spindle phenotype (DNA and α-tubulin immunofluorescence): condensed, but nonaligned chromosomes and disrupted spindles
CAPAN-2 cells
  GI50: 239 nM
HuH7 cells
  GI50: 141 nM
U937 cells
  GI50: 250 nM
HCT-15 cells
  GI50: 224 nM
CaCo-2 cells
  GI50: 501 nM
BxPC-3 cells
  GI50: 270 nM
SNU-423 cells
  GI50: 384 nM
HeLa cells
  GI50: 462 nM
NIH 3T3 cells
  GI50: 730 nM
